# Source: patent publication US11638427B2, “Methods and compositions for altering secondary metabolites in plants” (Impello Biosciences, Inc, priority 2020, dated 2023)
# Where “and” joins values, the source holds several entries; their conditions need not be identical. Equal entries are not always repeated.
# Tested on: CBDRx Cherry hemp clones
# Experiment: Foliar spray of MS, MDJ and MS+MDJ on hemp clones: biomass, cannabinoid and terpene analysis
# Type: in vivo, Cannabis spp.
# Design: CBDA / CBD / THCA / Total CBG / Total cannabinoids: unit not given here
# Details: for plants died before the end of the experiment: four plants per treatment group
# Method: Methyl salicylate (MS) is an antagonistic compound to the jasmonates. To investigate the effect of MS alone and in conjunction with MDJ, MS (CAS No.: 119-36-8), MDJ, and the combination (MS+MDJ) were applied by foliar spray to CBDRx Cherry hemp clones once per week during both vegetative and flowering phases. Plants were transplanted into 1-gallon pots with Red's soil and put into vegetative light cycle (18L/6D). […] Plants were grown under a total of 12 Boost (Thrive Agritech, NY) 130-watt LED lights set to 18L: 6D photoperiod during the vegetative phase (2 weeks) and this was followed by a 12L: 12D photoperiod during the flowering phase (7 weeks), using the same lighting fixtures. Throughout the nine weeks, all plants were watered when needed with Jack's nutrients.
# MS or MDJ treatments were applied at the following concentrations: [1 mM], [4.25 mM], [7.5 mM] and [10 mM]. Each concentration was prepared from a one molar stock solution diluted with RO water and TWEEN®-20 (1M stock) was added. Each plant was sprayed till dripping, which was approximately 50-75 ml. To apply the combination of the two biochemicals, MS and MDJ were sprayed separately but simultaneously, to ensure each compound was applied evenly onto the plant. Each compound was applied using a SPRAYMASTER Chemical Sprayer (King of Prussia, Pa.).
# Plants were harvested two months after transplant. After harvesting, plants were air dried at room temperature for two weeks. Once plants were sufficiently dry, above ground dry weights were recorded and dried flower samples were collected and sent to a third-party lab for terpene and cannabinoid analysis. Two plants (#3 and #4) in treatment group MDJ [7.5] mM, two plants (#3 and #4) in MS [4.25] mM, one plant (#4) in MS [7.5], and one plant (#4) in MDJ [10] died before the end of the experiment.
# [1] = 1 mM foliar spray, Avg. of group
# [2] = 1 mM foliar spray, individual plant
# [3] = 4.25 mM foliar spray, Avg. of group
# [4] = 4.25 mM foliar spray, individual plant
# [5] = 7.5 mM foliar spray, Avg. of group
# [6] = 7.5 mM foliar spray, individual plant
# [7] = 10 mM foliar spray, Avg. of group
# [8] = 10 mM foliar spray, individual plant
compound,measurement,setting,value
"CCCCCC1C(=O)CCC1CC(=O)OC (centres unmarked) [MDJ, methyl dihydrojasmonate]",Alpha-bisabolol,[1],0.109 % wt/wt
same,Alpha-humulene,[1],0.08163 % wt/wt
same,Beta-caryophyllene,[1],0.2027 % wt/wt
same,CBCA,[1],0.64
same,CBD,[1],0.105
same,CBDA,[1],12.99
same,CBGA,[1],0.3425
same,Limonene,[1],0.1362 % wt/wt
same,THCA,[1],0.565
same,Total CBD,[1],11.4975
same,Total CBG,[1],4.2075
same,Total cannabinoids,[1],14.6425
same,Total d9THC,[1],0.495
same,alpha-pinene,[1],0.02277 % wt/wt
same,beta-myrcene,[1],1.04 % wt/wt
same,beta-pinene,[1],0.0188 % wt/wt
same,total terpenes,[1],1.7075 % wt/wt
same,Alpha-bisabolol,[2],0.1238 % wt/wt and 0.1069 % wt/wt and 0.094 % wt/wt and 0.1113 % wt/wt
same,Alpha-humulene,[2],0.0944 % wt/wt and 0.0784 % wt/wt and 0.0831 % wt/wt and 0.0706 % wt/wt
same,Beta-caryophyllene,[2],0.2352 % wt/wt and 0.2003 % wt/wt and 0.2076 % wt/wt and 0.1676 % wt/wt
same,CBCA,[2],0.57 and 0.71 and 0.64 (2×)
same,CBD,[2],0.16 and 0 and 0.12 and 0.14
same,CBDA,[2],11.86 and 14.25 and 13.12 and 12.73
same,CBGA,[2],0.28 and 0.44 and 0.34 and 0.31
same,Limonene,[2],0.1352 % wt/wt and 0.1309 % wt/wt and 0.1572 % wt/wt and 0.1215 % wt/wt
same,THCA,[2],0.52 and 0.63 and 0.57 and 0.54
same,Total CBD,[2],10.55 and 12.5 and 11.63 and 11.31
same,Total CBG,[2],0.24 and 16.03 and 0.29 and 0.27
same,Total cannabinoids,[2],13.39 and 16.03 and 14.79 and 14.36
same,Total d9THC,[2],0.45 and 0.55 and 0.5 and 0.48
same,alpha-pinene,[2],0.0293 % wt/wt and 0.0283 % wt/wt and 0.0335 % wt/wt and 0 % wt/wt
same,beta-myrcene,[2],0.9825 % wt/wt and 1.0146 % wt/wt and 1.2146 % wt/wt and 0.9497 % wt/wt
same,beta-pinene,[2],0.0269 % wt/wt and 0.0238 % wt/wt and 0.0245 % wt/wt and 0 % wt/wt
same,total terpenes,[2],1.73 % wt/wt and 1.67 % wt/wt and 1.92 % wt/wt and 1.51 % wt/wt
same,Alpha-bisabolol,[3],0.1242 % wt/wt
same,Alpha-humulene,[3],0.0859 % wt/wt
same,Beta-caryophyllene,[3],0.2106 % wt/wt
same,CBCA,[3],0.6275
same,CBD,[3],0.29
same,CBDA,[3],12.9825
same,CBGA,[3],0.2975
same,Limonene,[3],0.1168 % wt/wt
same,THCA,[3],0.565
same,Total CBD,[3],11.6725
same,Total CBG,[3],0.2625
same,Total cannabinoids,[3],14.7625
same,Total d9THC,[3],0.495
same,alpha-pinene,[3],0.0132 % wt/wt
same,beta-myrcene,[3],0.9189 % wt/wt
same,beta-pinene,[3],0.02055 % wt/wt
same,total terpenes,[3],1.5875 % wt/wt
same,Alpha-bisabolol,[4],0.1239 % wt/wt and 0.1229 % wt/wt and 0.1255 % wt/wt and 0.1245 % wt/wt
same,Alpha-humulene,[4],0.0851 % wt/wt and 0.0781 % wt/wt and 0.0861 % wt/wt and 0.0943 % wt/wt
same,Beta-caryophyllene,[4],0.2071 % wt/wt and 0.1897 % wt/wt and 0.208 % wt/wt and 0.2377 % wt/wt
same,CBCA,[4],0.63 (2×) and 0.65 and 0.6
same,CBD,[4],0.28 and 0.36 and 0.38 and 0.14
same,CBDA,[4],13.17 (2×) and 12.87 and 12.72
same,CBGA,[4],0.33 and 0.31 and 0.26 and 0.29
same,Limonene,[4],0.1049 % wt/wt and 0.1307 % wt/wt and 0.0983 % wt/wt and 0.1334 % wt/wt
same,THCA,[4],0.57 (2×) and 0.56 (2×)
same,Total CBD,[4],11.83 and 11.9 and 11.67 and 11.29
same,Total CBG,[4],0.29 and 0.27 and 0.23 and 0.26
same,Total cannabinoids,[4],14.98 and 15.06 and 14.7 and 14.31
same,Total d9THC,[4],0.5 (2×) and 0.49 (2×)
same,alpha-pinene,[4],0 % wt/wt (2×) and 0.0253 % wt/wt and 0.0275 % wt/wt
same,beta-myrcene,[4],0.8032 % wt/wt and 1.0724 % wt/wt and 0.7447 % wt/wt and 1.0552 % wt/wt
same,beta-pinene,[4],0.0189 % wt/wt and 0.021 % wt/wt and 0.019 % wt/wt and 0.0233 % wt/wt
same,total terpenes,[4],1.44 % wt/wt and 1.73 % wt/wt and 1.38 % wt/wt and 1.8 % wt/wt
same,Alpha-bisabolol,[5],0.112 % wt/wt
same,Alpha-humulene,[5],0.08165 % wt/wt
same,Beta-caryophyllene,[5],0.2043 % wt/wt
same,CBCA,[5],0.675
same,CBD,[5],0.125
same,CBDA,[5],13.16
same,CBGA,[5],0.365
same,Limonene,[5],0.09595 % wt/wt
same,THCA,[5],0.575
same,Total CBD,[5],11.665
same,Total CBG,[5],0.315
same,Total cannabinoids,[5],14.9
same,Total d9THC,[5],0.505
same,alpha-pinene,[5],0 % wt/wt
same,beta-myrcene,[5],0.7442 % wt/wt
same,beta-pinene,[5],0.01015 % wt/wt
same,total terpenes,[5],1.345 % wt/wt
same,plants died before the end of the experiment,7.5 mM foliar spray,Two plants
same,Alpha-bisabolol,[6],0.1165 % wt/wt and 0.1076 % wt/wt
same,Alpha-humulene,[6],0.0802 % wt/wt and 0.0831 % wt/wt
same,Beta-caryophyllene,[6],0.2 % wt/wt and 0.2086 % wt/wt
same,CBCA,[6],0.63 and 0.72
same,CBD,[6],0.14 and 0.11
same,CBDA,[6],12.43 and 13.89
same,CBGA,[6],0.36 and 0.37
same,Limonene,[6],0.0965 % wt/wt and 0.0954 % wt/wt
same,THCA,[6],0.53 and 0.62
same,Total CBD,[6],11.04 and 12.29
same,Total CBG,[6],0.31 and 0.32
same,Total cannabinoids,[6],14.09 and 15.71
same,Total d9THC,[6],0.47 and 0.54
same,alpha-pinene,[6],0 % wt/wt
same,beta-myrcene,[6],0.7818 % wt/wt and 0.7066 % wt/wt
same,beta-pinene,[6],0.0203 % wt/wt and 0 % wt/wt
same,total terpenes,[6],1.39 % wt/wt and 1.3 % wt/wt
same,Alpha-bisabolol,[7],1.477 % wt/wt
same,Alpha-humulene,[7],0.1323 % wt/wt
same,Beta-caryophyllene,[7],0.0874 % wt/wt
same,CBCA,[7],0.643
same,CBD,[7],0.24
same,CBDA,[7],12.936
same,CBGA,[7],0.33
same,Limonene,[7],0.2188 % wt/wt
same,THCA,[7],0.56
same,Total CBD,[7],11.58
same,Total CBG,[7],0.29
same,Total cannabinoids,[7],14.71
same,Total d9THC,[7],0.493
same,alpha-pinene,[7],0.023 % wt/wt
same,beta-myrcene,[7],0.1067 % wt/wt
same,beta-pinene,[7],0.8058 % wt/wt
same,total terpenes,[7],0.023 % wt/wt
same,plants died before the end of the experiment,10 mM foliar spray,one plant
same,Alpha-bisabolol,[8],0.1507 % wt/wt and 0.143 % wt/wt and 0.1033 % wt/wt
same,Alpha-humulene,[8],0.0955 % wt/wt and 0.0751 % wt/wt and 0.0916 % wt/wt
same,Beta-caryophyllene,[8],0.2372 % wt/wt and 0.1978 % wt/wt and 0.2214 % wt/wt
same,CBCA,[8],0.62 and 0.71 and 0.6
same,CBD,[8],0.18 and 0.34 and 0.2
same,CBDA,[8],12.76 and 14.33 and 11.72
same,CBGA,[8],0.26 and 0.41 and 0.32
same,Limonene,[8],0.1165 % wt/wt and 0.0884 % wt/wt and 0.1154 % wt/wt
same,THCA,[8],0.56 and 0.62 and 0.5
same,Total CBD,[8],11.36 and 12.9 and 10.48
same,Total CBG,[8],0.23 and 0.36 and 0.28
same,Total cannabinoids,[8],14.38 and 16.41 and 13.34
same,Total d9THC,[8],0.49 and 0.55 and 0.44
same,alpha-pinene,[8],0 % wt/wt
same,beta-myrcene,[8],0.8838 % wt/wt and 0.6844 % wt/wt and 0.8492 % wt/wt
same,beta-pinene,[8],0.0249 % wt/wt and 0.0217 % wt/wt and 0.0224 % wt/wt
same,total terpenes,[8],1.62 % wt/wt and 1.3 % wt/wt and 1.51 % wt/wt
same,plant growth effects on clonal hemp plants in the vegetative stage,"all concentrations (1-10 mM), compared to all tested concentrations of MS",beneficial plant growth effects
same,total terpene content,application of 1 mM or 4.25 mM,increased
